This assay concerns the target T1, Human Vanilloid Receptor 1 (Homo sapiens, UniProt Q8NER1).
T1 construct: expressed in transfected cells; host or cells: HEK 293
Put plainly: Human VR1 functional assay using FLIPR, Protocol 1. Type of assay: cell-based. The following applies: for inhibition at 9 µM: HEK293, 9 uM, inhibition of capsaicin (EC80)-induced calcium response, HEK 293 cells transfected with hVR1, read-out: h % I (9 uM); for IC50: decreased capsaicin (EC80)-induced calcium response, HEK 293 hVR1, read-out: h IC50; for Emax at 12.2 µM: HEK293, 12.2 uM, test compound-induced calcium response (agonist mode), HEK 293 hVR1, read-out: % maximal reponse to capsaicin (12.2 uM); for EC50: test compound-induced calcium response at the 5-minute time point, HEK 293 hVR1, read-out: h EC50. As for the experimental part:
The functional activity of the test compounds was determined by measuring changes in intracellular calcium concentration using FLIPR™ Calcium-3 Assay Kit and FLIPR™ technology.
HEK 293 cells transfected with Human Vanilloid Receptor 1 were maintained at 37° C. and 5% CO2 in: Dulbecco's Modification of Eagle's Medium (high glucose, L-glutamine, pyridoxine HCl, No sodium pyruvate), 10% FBS, 1× Penicillin-Streptomycin-Amphotericin B, 200 ug/mL zeocin. Approximately 24 hours prior to assay, 30,000 cells/well were plated onto a 384-well black clear bottom poly-D-lysine-coated assay plate with a well volume of 25 µL using Titertek Multidrop.
On the day of the assay, the medium was dumped and 50 μL 1× dye were loaded using Multidrop. Plates were incubated with dye at 37° C. for 30 minutes followed by 30 minutes incubation at room temperature. Then the plates were assayed by FLIPR™ with 2 additions: 12.5 μL test compound with 5 minutes data acquisition followed by 12.5 μL capsaicin at the EC80 concentration.
The EC50 values of test compounds were calculated based on a test compound-induced calcium response at the 5-minute time point. The IC50 values of compounds were calculated based on a decreased capsaicin-induced calcium response in the presence of test compound.

T1 sequence (Q8NER1 whole entry): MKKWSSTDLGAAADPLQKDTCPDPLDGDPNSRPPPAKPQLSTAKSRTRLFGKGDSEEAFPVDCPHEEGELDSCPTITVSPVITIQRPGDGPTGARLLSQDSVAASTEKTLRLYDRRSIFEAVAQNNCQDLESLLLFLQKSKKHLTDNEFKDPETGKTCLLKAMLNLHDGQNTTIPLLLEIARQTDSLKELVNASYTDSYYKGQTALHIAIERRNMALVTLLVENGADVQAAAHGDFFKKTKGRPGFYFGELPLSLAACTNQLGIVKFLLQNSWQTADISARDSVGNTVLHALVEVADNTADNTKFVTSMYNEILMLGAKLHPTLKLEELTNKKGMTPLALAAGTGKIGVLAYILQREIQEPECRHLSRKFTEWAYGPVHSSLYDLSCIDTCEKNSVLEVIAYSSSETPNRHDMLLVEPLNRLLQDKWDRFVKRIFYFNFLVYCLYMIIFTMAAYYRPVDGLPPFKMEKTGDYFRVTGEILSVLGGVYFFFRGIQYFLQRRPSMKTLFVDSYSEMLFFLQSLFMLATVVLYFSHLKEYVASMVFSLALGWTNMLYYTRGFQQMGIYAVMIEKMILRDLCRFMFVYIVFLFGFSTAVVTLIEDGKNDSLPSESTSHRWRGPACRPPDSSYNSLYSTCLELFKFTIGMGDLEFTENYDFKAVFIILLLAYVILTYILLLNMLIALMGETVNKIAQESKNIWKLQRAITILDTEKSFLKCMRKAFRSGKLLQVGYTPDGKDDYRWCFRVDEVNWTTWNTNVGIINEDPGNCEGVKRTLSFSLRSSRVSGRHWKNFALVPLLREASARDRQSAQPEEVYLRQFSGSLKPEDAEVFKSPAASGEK

For `O=C(Nc1cnc2ccccc2c1)C1CCN(c2ccc(-c3ccccc3)cc2)CC1` [Example 1, 1-Biphenyl-4-yl-piperidine-4-carboxylic acid quinolin-3-ylamide], the inhibition at 9 µM stood at 7%.
In the case of `O=C(Nc1cnc2ccccc2c1)C1CCN(c2cccc(C(F)(F)F)c2)CC1` [Example 2, 1-(3-Trifluoromethyl-phenyl)-piperidine-4-carboxylic acid quinolin-3-ylamide], the inhibition at 9 µM amounted to 109% and the IC50 – broadly, the concentration at which inhibition is half-maximal – amounted to 0.6 µM.
In the same order, the values of `O=C(Nc1cnc2ccccc2c1)C1CCN(c2cccc(-c3ccccc3)c2)CC1` [Example 3, 1-Biphenyl-3-yl-piperidine-4-carboxylic acid quinolin-3-ylamide] are 44% and 15.5 µM.
For the molecule `O=C(Nc1cnc2ccccc2c1)C1CCN(c2ccc(C(F)(F)F)cc2)CC1` [Example 4, 1-(4-Trifluoromethyl-phenyl)-piperidine-4-carboxylic acid quinolin-3-ylamide], the inhibition at 9 µM came out at 7.5%.
Regarding `Cc1cccc(N2CCC(C(=O)Nc3cnc4ccccc4c3)CC2)c1C` [Example 5, 1-(2,3-Dimethyl-phenyl)-piperidine-4-carboxylic acid quinolin-3-ylamide], the inhibition at 9 µM was 102% and the IC50 was found to be 0.23 µM.
Consider `CCn1cnc2c(NC(=O)C3CCN(c4cccc(C(F)(F)F)c4)CC3)ncnc21` [Example 7, 1-(3-Trifluoromethyl-phenyl)-piperidine-4-carboxylic acid (9-ethyl-9H-purin-6-yl)-amide], for which the inhibition at 9 µM stood at 5%.
For the molecule `O=C(Nc1ncnc2sccc12)C1CCN(c2cccc(C(F)(F)F)c2)CC1` [Example 10, 1-(3-Trifluoromethyl-phenyl)-piperidine-4-carboxylic acid thieno[2,3-d]pyrimidin-4-ylamide], the Emax at 12.2 µM amounted to 81% and the EC50 (commonly the concentration needed to bring the measured effect to its halfway point) is 0.86 µM.
As to `O=C(Nc1cccc2cn[nH]c12)C1CCN(c2cccc(C(F)(F)F)c2)CC1` [Example 11, 1-(3-Trifluoromethyl-phenyl)-piperidine-4-carboxylic acid (1H-indazol-7-yl)-amide], the inhibition at 9 µM was 72% and the IC50 was 2.84 µM.
As for `Cc1nsc2ccc(NC(=O)C3CCN(c4cccc(C(F)(F)F)c4)CC3)cc12` [Example 12, 1-(3-Trifluoromethyl-phenyl)-piperidine-4-carboxylic acid (3-methyl-benzo[d]isothiazol-5-yl)-amide], the Emax at 12.2 µM came out at 74% and the EC50 worked out at 0.86 µM.
Regarding `CCOC(=O)c1[nH]c2ccccc2c1NC(=O)C1CCN(c2cccc(C(F)(F)F)c2)CC1` [Example 14, 3-{[1-(3-Trifluoromethyl-phenyl)-piperidine-4-carbonyl]-amino}-1H-indole-2-carboxylic acid ethyl ester], the inhibition at 9 µM worked out at 4%.
As to `O=C(Nc1ccc2c(c1)OCO2)C1CCN(c2cccc(C(F)(F)F)c2)CC1` [Example 15, 1-(3-Trifluoromethyl-phenyl)-piperidine-4-carboxylic acid benzo[1,3]dioxol-5-ylamide], the inhibition at 9 µM was 61% and the IC50 was determined as 4.57 µM.
On to `O=C1Cc2cc(NC(=O)C3CCN(c4cccc(C(F)(F)F)c4)CC3)ccc2N1` [Example 17, 1-(3-Trifluoromethyl-phenyl)-piperidine-4-carboxylic acid (2-oxo-2,3-dihydro-1H-indol-5-yl)-amide], for which the Emax at 12.2 µM stood at 49% and the EC50 was 0.47 µM.
Take `O=C(Nc1ccc2c(c1)OCCO2)C1CCN(c2cccc(C(F)(F)F)c2)CC1` [Example 18, 1-(3-Trifluoromethyl-phenyl)-piperidine-4-carboxylic acid (2,3-dihydro-benzo[1,4]dioxin-6-yl)-amide]: the inhibition at 9 µM amounted to 12.5%.
The same measure, in the same setting: the result for `Cc1nc2cc(NC(=O)C3CCN(c4cccc(C(F)(F)F)c4)CC3)ccc2s1` [Example 19, 1-(3-Trifluoromethyl-phenyl)-piperidine-4-carboxylic acid (2-methyl-benzothiazol-5-yl)-amide] reads 7.5%.

(Values after patent publication US20060116368A1, “4-Piperidinecarboxamide modulators of vanilloid VR1 receptor” (priority 2004, published 2006).)
